Assay results from patent publication US20190380999A1, “COMBINATIONS OF GENISTEIN AND BISPHOSPHONATES” (Primus Pharmaceuticals, Inc., priority 2018, published 2019).

Key:
Format in all cases: cell-based, mouse
[1] = system: RAW267.4 cells; assay: Cell proliferation of RAW267.4 cells (attached cell count after 3 days culture); details: single agent 0.1, 1.0, 10 and 100 μM, control 0.1% ethanol vehicle, FIGS. 1A and B
Method: RAW267.4 cells were cultured for 3 days in Dulbecco's modification of Eagle's medium containing vehicle (0.1% ethanol), (A) alendronate, (B) genistein or (C) alendronate plus genistein. After culture, the number of attached cells on the dish was counted. Data are presented as the mean±standard deviation of two replicate wells per data set using different dishes and cell preparation. *P<0.001 vs. control group (grey bar) as determined by one-way analysis of variance and Tukey-Kramer post hoc test.
RAW267.4 cells (1×10^5/ml cells/well; 2 ml medium added per well in 24-well plates) were cultured in DMEM containing 10% FBS and 1% P/S for 3 days in a water-saturated atmosphere containing 5% CO2 and 95% air at 37° C. (23). The cells were cultured in the presence or absence of vehicle (ethanol; final concentration 0.1%), alendronate (0.1, 1, 10 or 100 μM), genistein (0.1, 1, 10 or 100 μM), or alendronate (0.1, 1, 10 or 100 μM) plus genistein (0.1, 1, 10, or 100 After culture, cells were detached from each culture dish and counted. Following trypsinization of each of culture dish using 0.2% trpysin plus 0.02% EDTA in Ca^2+/Mg^2+-free PBS for 2 min at 37° C., cells detached from the dish were collected following centrifugation at 150×g (4° C.) for 5 min (23). Cells were resuspended in PBS solution and stained with eosin. […] For each dish, the average of two counts was calculated. […]

[2] = system: RAW267.4 cells; assay: Cell death of confluent RAW267.4 cells (cell count after additional 2 days culture); details: single agent 0.1, 1.0, 10 and 100 μM, FIGS. 2A and B
Method: RAW267.4 cells were cultured for 3 days in Dulbecco's modification of Eagle's medium, and then the cells were additionally cultured for 2 days in the presence or absence of (A) alendronate, (B) genistein or alendronate plus genistein. After culture, the number of attached cells on the dish was counted.
RAW267.4 cells (1×10^5/ml cells/well; 2 ml medium added per well in 24-well plates) were cultured in DMEM containing 10% FBS and 1% P/S for 3 days when confluence was reached (24). The cells were then cultured for an additional 2 days in the presence or absence of alendronate (0.1, 1, 10 or 100 μM), genistein (0.1, 1, 10 or 100 μM), or alendronate (0.1, 1, 10 or 100 μM) plus genistein (0.1, 1, 10 or 100 μM). After culture, cells were detached from each culture dish and counted as described for the cell proliferation assay.

[3] = system: RAW264.7 cells; assay: Osteoclastogenesis assay, RANKL-induced, TRAP staining (TRAP-positive multinucleated cells); details: RANKL 30 ng/ml, 6 days; for effect on RANKL-induced osteoclastic differentiation (TRAP+ multinucleated cells): FIG. 3A; for effect on RANKL-stimulated osteoclastic differentiation (TRAP+ multinucleated cells): FIG. 3B
Method: Cells were cultured for 6 days with RANKL (30 ng/ml) pre-incubated for 10 min with crosslinking anti-poly-histidine antibody (2.5 μg/ml) in the presence or absence of vehicle (0.1% ethanol), (A) alendronate, (B) genistein or (C) alendronate plus genistein. After 6 days of culture, the cells were fixed and stained for TRAP.
RAW264.7 cells were cultured in 96-well plates in DMEM supplemented with 10% FBS and 1% P/S at a density of 1×10^4 cells/well. Cells were cultured for 6 days with RANKL (30 ng/ml) pre-incubated for 10 min with crosslinking anti-poly-histidine antibody (2.5 μg/ml; IC050P; R&D Systems, Inc., Minneapolis, Minn., USA) to induce osteoclast formation (21,22), in the presence or absence of vehicle (ethanol; final concentration 0.1%), alendronate (0.1, 1, 10 or 100 μM), genistein (0.1, 1, 10 or 100 μM), or alendronate (0.1, 1, 10 or 100 μM) plus genistein (0.1, 1, 10 or 100 μM). After 6 days of culture, the cells were fixed and stained for TRAP, a specific marker of the osteoclast phenotype, using a leukocyte acid phosphatase kit. […] TRAP-positive multinucleated cells (MNCs with at least three nuclei) were considered to be osteoclast-like cells, and the cells were counted using light microscopy (Olympus MTV-3). MNC scores are expressed as the mean±standard deviation of six cultures with two replicate wells per data set using different dishes and cell preparation.

NCCCC(O)(P(=O)(O)O)P(=O)(O)O [alendronate]
effect on the proliferation of RAW267.4 cells (number of attached cells) vs control [1]: did not have a significant effect | alteration in the number of RAW267.4 cells (cell death) [2]: did not cause a significant alteration | effect on RANKL-induced osteoclastic differentiation (TRAP+ multinucleated cells) ([3]; alendronate alone 100 μM): suppressed | effect on RANKL-induced osteoclastic differentiation (TRAP+ multinucleated cells) ([3]; alendronate alone 0.1, 1.0 and 10 μM): had no significant effect

O=c1c(-c2ccc(O)cc2)coc2cc(O)cc(O)c12 [genistein, 4′,5,7-trihydroxyisoflavone]
effect on the proliferation of RAW267.4 cells (number of attached cells) vs control [1]: did not have a significant effect | alteration in the number of RAW267.4 cells (cell death) [2]: did not cause a significant alteration | effect on RANKL-stimulated osteoclastic differentiation (TRAP+ multinucleated cells) ([3]; genistein alone 0.1 and 1.0 μM): did not reveal an effect | effect on RANKL-stimulated osteoclastic differentiation (TRAP+ multinucleated cells) ([3]; genistein alone 10 and 100 μM): suppressed
